From US11458189B2, “Cytoprotective drugs” (BALMES TRANSPLANTATION, priority 2017, dated 2022)
Starred links: 1 amine or outer side, 2 acyl side, 3 side chain; linkers in the order of their positions; H or OH if unused. Positions of bridges follow the written chain, without caps; N, C: chain ends. Non-standard residues stand in square brackets, D forms with d. Residues, ends and D or L forms follow the SMILES beside them. ξ: configuration not given here. *: point of attachment. hTyr(3S-OH,4S-OH,3'-OSO3H) = N[C@H](C(=O)O)[C@H](O)[C@@H](O)c1ccc(O)c(OS(=O)(=O)O)c1; pTerphenylCO(4''-OnC5H11) = CCCCCOc1ccc(-c2ccc(-c3ccc(C(=O)*)cc3)cc2)cc1; Orn(4R-OH,5R-OH) = O=C([C@H](C[C@@H](O)[C@@H](O)N[*:3])N[*:1])[*:2]; hTyr(3S-OH,4S-OH) = N[C@H](C(=O)O)[C@H](O)[C@@H](O)c1ccc(O)cc1; Pro(3S-OH,4S-Me) = C[C@H]1CN[C@H](C(=O)O)[C@H]1O; X1 = CCCCCOc1ccc(-c2cc(-c3ccc(C(=O)*)cc3)no2)cc1; Gln(3R-OH) = NC(=O)C[C@@H](O)[C@H](N)C(=O)O; ξPro(4R-OH) = O=C(O)C1C[C@@H](O)CN1; Hyp = O=C(O)[C@@H]1C[C@@H](O)CN1

System: Bovine Brain Microvascular Endothelial Cells (BBMEC)
Assay: Oxygen and glucose deprivation followed by replenishment, cell survival (calcein AM), BBMEC
Assay type: cell-based
Method: Anidulafungin and micafungin were tested on Human Renal Glomerular Endothelial Cells (HRGEC, Innoprot P10665), on Human Renal Proximal Tubular Epithelial Cells (HRPTEpiC, Innoprot P10662), on Human Astrocytes (HA, caltag SC-1800), on Human Cardiac Microvascular Endothelial Cells (HCMEC, Caltag SC-6000), on Human Hepatic Sinusoidal Endothelial Cells (HHSEC, Caltag SC-5000), on Rat Primary Kidney Glomerular Endothelial cells (Cellbiologics, RN-6014G) and on Bovine Brain Microvascular Endothelial Cells (BBMEC, Caltag SC-B100).
In a first phase, these isolated, purified and cryopreserved cells are thawed and multiplied according to the supplier's recommendations in T75 or T175 flasks pre-coated with 2 μg of fibronectin/[…] (CORNING) for HRGEC, HCMEC, HHSEC and BBMEC, or 2 μg poly-L-lysin/cm^2 (Caltag SC-0403) for HRPTEpiC and HA, or 15 mL/flask 175 cm^2 gelatin-based solution (Cellbiologics) in the presence of endothelial cell supplemented growth medium ECM (P60104, INNOPROT, Caltag, SC-1001) for HRGEC, HCMEC, HHSEC, RPKGEC or BBMEC, or astrocyte cell supplemented growth medium AM (Caltag SC-1801) for HA or epithelial cell supplemented growth medium EpiCM (P60106, INNOPROT) for HRPTEpiC, at 37° C. under 5% CO2 and saturated humidity until their confluency. They are then harvested by trypsinization according to the method described by the supplier for exactly 5 minutes and then reseeded in new flasks a maximum of three times.
To carry out the oxygen and glucose deprivation test followed by their replenishment, the cells will be seeded in 96-well black plates with transparent flat bottom (GREINER). Once a sufficient number of cells has been obtained to allow seeding of 2000 to 15000 cells per well of 96-well plates depending on the cell type, the cells are seeded in these 96-well plates previously coated with an extracellular matrix as listed above for the flasks. The cells are cultured for 5 to 8 days according to the cell type, in the presence of the same growth medium as in the flask as described above except for HRGEC and HRPTEpiC for which DMEM (DUTSCHER) with 1 g/L of supplemented glucose is used, at 37° C. under 5% CO2 and saturated humidity to obtain confluency.
On the first day of oxygen and glucose deprivation, (5th, 6th, 7th or 8th day of culture), the culture conditions are drastically changed. The medium of all plates is removed and replaced by DMEM (DUTSCHER) medium without glucose and supplemented only with 1% penicillin-streptomycin (DUTSCHER). Anidulafungin or micafungin dissolved in dimethyl sulfoxide (DMSO) is then added to each well at the desired concentration, resulting in a maximum of 1% DMSO, and the plates are placed under hypoxia at <1% 02 and 5% CO2 at 37° C. for 24 hours of culture. Each compound was tested in a concentration range.
After 24 hours, the growth medium is changed and replaced by a richer medium, DMEM (DUTSCHER) at 1 g/L glucose and 2% FBS (INNOPROT) and 1% penicillin-streptomycin (DUTSCHER). These media will have been pre-equilibrated at 37° C. in advance. The cells are then returned to culture at 37° C. under 20% 02 and 5% CO2 for 22h.
After 22 hours of reoxygenation, the potential protective effect of anidulafungin or micafungin is measured by a cell viability test using calcein AM (CORNING), which is a dye substrate. The calcein AM can easily cross the cell membrane of the viable cells. The AM ester groups mask the part of the molecule that chelates calcium. Once inside the cells, the (non-fluorescent) calcein AM is hydrolyzed to (fluorescent) calcein by endogenous esterases. The resulting calcein molecule binds to calcium inside the cell and remains trapped inside the cell. These molecules emit strong green fluorescence when subjected to […] of a particular wavelength (495 nm). Since dead cells lack esterase activity, only living cells are labelled.
This cell viability test is performed in two steps. […]

[1] = [Anidulafungin] log μM 0.1760913
[2] = [Anidulafungin] log μM −0.1249387
[3] = [Anidulafungin] log μM −0.30103
[4] = [Anidulafungin] log μM −0.5228788

CCCCCOc1ccc(-c2ccc(-c3ccc(C(=O)N[C@H]4C[C@@H](O)[C@@H](O)NC(=O)[C@@H]5[C@@H](O)[C@@H](C)CN5C(=O)[C@H]([C@@H](C)O)NC(=O)[C@H]([C@H](O)[C@@H](O)c5ccc(O)cc5)NC(=O)C5C[C@@H](O)CN5C(=O)[C@H]([C@@H](C)O)NC4=O)cc3)cc2)cc1 (stereo partly drawn) [Anidulafungin] ({pTerphenylCO(4''-OnC5H11)}-[Orn(4R-OH,5R-OH)]T[ξPro(4R-OH)][hTyr(3S-OH,4S-OH)]T[Pro(3S-OH,4S-Me)]; lactam 1-C)
Globalfluo assay 1 ([Anidulafungin] log μM 0): 941644 arbitrary units | Globalfluo assay 2 ([Anidulafungin] log μM 0): 1153883 arbitrary units | Globalfluo assay 3 ([Anidulafungin] log μM 0): 1374585 arbitrary units | Mean globalfluo ([Anidulafungin] log μM 0): 1156704 arbitrary units | Survival rate (%) ([Anidulafungin] log μM 0): 30% | Globalfluo assay 1 [1]: 2348228 arbitrary units | Globalfluo assay 2 [1]: 1617378 arbitrary units | Globalfluo assay 3 [1]: 1887981 arbitrary units | Mean globalfluo [1]: 1951196 arbitrary units | Survival rate (%) [1]: 77% | Globalfluo assay 1 ([Anidulafungin] log μM 0.30103): 2455048 arbitrary units | Globalfluo assay 2 ([Anidulafungin] log μM 0.30103): 2409886 arbitrary units | Globalfluo assay 3 ([Anidulafungin] log μM 0.30103): 4507112 arbitrary units | Mean globalfluo ([Anidulafungin] log μM 0.30103): 3124015 arbitrary units | Survival rate (%) ([Anidulafungin] log μM 0.30103): 145% | Globalfluo assay 1 ([Anidulafungin] log μM 0.60206): 4710709 arbitrary units | Globalfluo assay 2 ([Anidulafungin] log μM 0.60206): 5014887 arbitrary units | Globalfluo assay 3 ([Anidulafungin] log μM 0.60206): 4901610 arbitrary units | Mean globalfluo ([Anidulafungin] log μM 0.60206): 4875735 arbitrary units | Survival rate (%) ([Anidulafungin] log μM 0.60206): 248% | Globalfluo assay 1 [2]: 1165160 arbitrary units | Globalfluo assay 2 [2]: 919370 arbitrary units | Globalfluo assay 3 [2]: 944308 arbitrary units | Mean globalfluo [2]: 1009613 arbitrary units | Survival rate (%) [2]: 22% | Globalfluo assay 1 [3]: 744687 arbitrary units | Globalfluo assay 2 [3]: 1045135 arbitrary units | Globalfluo assay 3 [3]: 678965 arbitrary units | Mean globalfluo [3]: 822929 arbitrary units | Survival rate (%) [3]: 11% | Globalfluo assay 1 [4]: 800327 arbitrary units | Globalfluo assay 2 [4]: 708910 arbitrary units | Globalfluo assay 3 [4]: 845212 arbitrary units | Mean globalfluo [4]: 784816 arbitrary units | Survival rate (%) [4]: 8% | Globalfluo assay 1 ([Anidulafungin] log μM −1): 649447 arbitrary units | Globalfluo assay 2 ([Anidulafungin] log μM −1): 1235676 arbitrary units | Globalfluo assay 3 ([Anidulafungin] log μM −1): 807779 arbitrary units | Mean globalfluo ([Anidulafungin] log μM −1): 897634 arbitrary units | Survival rate (%) ([Anidulafungin] log μM −1): 15% | Globalfluo assay 1 ([Anidulafungin] log μM −2): 664396 arbitrary units | Globalfluo assay 2 ([Anidulafungin] log μM −2): 532817 arbitrary units | Globalfluo assay 3 ([Anidulafungin] log μM −2): 541230 arbitrary units | Mean globalfluo ([Anidulafungin] log μM −2): 579481 arbitrary units | Survival rate (%) ([Anidulafungin] log μM −2): −4%

CCCCCOc1ccc(-c2cc(-c3ccc(C(=O)N[C@H]4C[C@@H](O)[C@@H](O)NC(=O)[C@@H]5[C@@H](O)[C@@H](C)CN5C(=O)[C@H]([C@H](O)CC(N)=O)NC(=O)[C@H]([C@H](O)[C@@H](O)c5ccc(O)c(OS(=O)(=O)O)c5)NC(=O)[C@@H]5C[C@@H](O)CN5C(=O)[C@H]([C@@H](C)O)NC4=O)cc3)no2)cc1 [Micafungin, {5-[(1S,2S)-2-[(3S,6S,9S,11R,15S,18S,20R,21R,24S,25S,26S)-3-[(1R)-2-carbamoyl-1-hydroxyethyl]-11,20,21,25-tetrahydroxy-15-[(1R)-1-hydroxyethyl]-26-methyl-2,5,8,14,17,23-hexaoxo-18-[(4-{5-[4-(pentyloxy)phenyl]-1,2-oxazol-3-yl}benzene)amido]-1,4,7,13,16,22-hexaazatricyclo[22.3.0.0]heptacosan-6-yl]-1,2-dihydroxyethyl]-2-hydroxyphenyl}oxidanesulfonic acid] (X1-[Orn(4R-OH,5R-OH)]T[Hyp][hTyr(3S-OH,4S-OH,3'-OSO3H)][Gln(3R-OH)][Pro(3S-OH,4S-Me)]; lactam 1-C)
Globalfluo assay 1 ([Micafungin] log μM 0): 1369504 arbitrary units | Globalfluo assay 2 ([Micafungin] log μM 0): 1354112 arbitrary units | Globalfluo assay 3 ([Micafungin] log μM 0): 1230715 arbitrary units | Mean globalfluo ([Micafungin] log μM 0): 1318110 arbitrary units | Survival rate (%) ([Micafungin] log μM 0): 23% | Globalfluo assay 1 ([Micafungin] log μM 0.4771213): 2106751 arbitrary units | Globalfluo assay 2 ([Micafungin] log μM 0.4771213): 1655153 arbitrary units | Globalfluo assay 3 ([Micafungin] log μM 0.4771213): 1618365 arbitrary units | Mean globalfluo ([Micafungin] log μM 0.4771213): 1793423 arbitrary units | Survival rate (%) ([Micafungin] log μM 0.4771213): 46% | Globalfluo assay 1 ([Micafungin] log μM 0.7781513): 1732851 arbitrary units | Globalfluo assay 2 ([Micafungin] log μM 0.7781513): 1742799 arbitrary units | Globalfluo assay 3 ([Micafungin] log μM 0.7781513): 1796080 arbitrary units | Mean globalfluo ([Micafungin] log μM 0.7781513): 1757243 arbitrary units | Survival rate (%) ([Micafungin] log μM 0.7781513): 44% | Globalfluo assay 1 ([Micafungin] log μM 0.90309): 3787727 arbitrary units | Globalfluo assay 2 ([Micafungin] log μM 0.90309): 1942995 arbitrary units | Globalfluo assay 3 ([Micafungin] log μM 0.90309): 2729816 arbitrary units | Mean globalfluo ([Micafungin] log μM 0.90309): 2820179 arbitrary units | Survival rate (%) ([Micafungin] log μM 0.90309): 96% | Globalfluo assay 1 ([Micafungin] log μM 1): 3519337 arbitrary units | Globalfluo assay 2 ([Micafungin] log μM 1): 3058877 arbitrary units | Globalfluo assay 3 ([Micafungin] log μM 1): 3179364 arbitrary units | Mean globalfluo ([Micafungin] log μM 1): 3252526 arbitrary units | Survival rate (%) ([Micafungin] log μM 1): 117% | Globalfluo assay 1 ([Micafungin] log μM 1.079181): 2865371 arbitrary units | Globalfluo assay 2 ([Micafungin] log μM 1.079181): 2913567 arbitrary units | Globalfluo assay 3 ([Micafungin] log μM 1.079181): 3561196 arbitrary units | Mean globalfluo ([Micafungin] log μM 1.079181): 3113378 arbitrary units | Survival rate (%) ([Micafungin] log μM 1.079181): 110% | Globalfluo assay 1 ([Micafungin] log μM 1.176091): 2994828 arbitrary units | Globalfluo assay 2 ([Micafungin] log μM 1.176091): 3496204 arbitrary units | Globalfluo assay 3 ([Micafungin] log μM 1.176091): 3106542 arbitrary units | Mean globalfluo ([Micafungin] log μM 1.176091): 3199191 arbitrary units | Survival rate (%) ([Micafungin] log μM 1.176091): 114% | Globalfluo assay 1 ([Micafungin] log μM 1.30103): 3526958 arbitrary units | Globalfluo assay 2 ([Micafungin] log μM 1.30103): 3025877 arbitrary units | Globalfluo assay 3 ([Micafungin] log μM 1.30103): 3586726 arbitrary units | Mean globalfluo ([Micafungin] log μM 1.30103): 3379854 arbitrary units | Survival rate (%) ([Micafungin] log μM 1.30103): 123% | Globalfluo assay 1 ([Micafungin] log μM 1.477121): 2506989 arbitrary units | Globalfluo assay 2 ([Micafungin] log μM 1.477121): 2361926 arbitrary units | Globalfluo assay 3 ([Micafungin] log μM 1.477121): 2557219 arbitrary units | Mean globalfluo ([Micafungin] log μM 1.477121): 2475378 arbitrary units | Survival rate (%) ([Micafungin] log μM 1.477121): 79% | Globalfluo assay 1 ([Micafungin] log μM −0.5228788): 1907644 arbitrary units | Globalfluo assay 2 ([Micafungin] log μM −0.5228788): 993296 arbitrary units | Globalfluo assay 3 ([Micafungin] log μM −0.5228788): 1867099 arbitrary units | Mean globalfluo ([Micafungin] log μM −0.5228788): 1589346 arbitrary units | Survival rate (%) ([Micafungin] log μM −0.5228788): 36% | Globalfluo assay 1 ([Micafungin] log μM −1): 1108584 arbitrary units | Globalfluo assay 2 ([Micafungin] log μM −1): 1249769 arbitrary units | Globalfluo assay 3 ([Micafungin] log μM −1): 1224251 arbitrary units | Mean globalfluo ([Micafungin] log μM −1): 1194201 arbitrary units | Survival rate (%) ([Micafungin] log μM −1): 17% | Globalfluo assay 1 ([Micafungin] log μM −2): 1778372 arbitrary units | Globalfluo assay 2 ([Micafungin] log μM −2): 817005 arbitrary units | Globalfluo assay 3 ([Micafungin] log μM −2): 1173090 arbitrary units | Mean globalfluo ([Micafungin] log μM −2): 1256156 arbitrary units | Survival rate (%) ([Micafungin] log μM −2): 20%
